In the NIST ThermoML archive (doi:10.1016/j.jct.2015.06.025):

Tests used:
[1] = 101.3 kPa, Liquid, Capillary tube (Ostwald / Ubbelohde) method
[2] = mn = molality of the nth substance listed, in mol/kg; conditions: 101.3 kPa, Liquid; for viscosity: Capillary tube (Ostwald / Ubbelohde) method; for mass density: Pycnometric method

O [water]
[1]
Conditions	viscosity [mPa·s]
288.15 K	1.138
298.15 K	0.8903
308.15 K	0.7195

CCCC(CCC)C(=O)[O-].[Na+] [sodium valproate] + O
[2]
Conditions	mass density, 288.15 K [kg/m3]	mass density, 298.15 K [kg/m3]	mass density, 308.15 K [kg/m3]	viscosity, 288.15 K [mPa·s]	viscosity, 298.15 K [mPa·s]	viscosity, 308.15 K [mPa·s]
m1 = 0.01	–	997.43	994.42	–	0.8988	0.7252
m1 = 0.0102	999.51	–	–	1.153	–	–
m1 = 0.0191	999.84	997.79	–	1.162	0.9064	–
m1 = 0.02	–	–	994.78	–	–	0.7296
m1 = 0.0245	1000.06	997.98	–	1.169	0.9122	–
m1 = 0.0303	–	–	995.13	–	–	0.7345
m1 = 0.0305	1000.3	998.22	–	1.177	0.9166	–
m1 = 0.0401	1000.66	998.56	–	1.187	0.9238	–
m1 = 0.0405	–	–	995.53	–	–	0.7397
m1 = 0.0453	1000.87	998.75	–	1.195	0.9268	–
m1 = 0.0497	–	–	995.89	–	–	0.7444
m1 = 0.0501	1001.04	998.91	–	1.201	0.9318	–
m1 = 0.0605	–	–	996.24	–	–	0.7499
m1 = 0.0608	1001.43	999.3	–	1.213	0.9391	–
m1 = 0.0706	1001.79	999.64	–	1.225	0.9476	–
m1 = 0.0708	–	–	996.63	–	–	0.7552
m1 = 0.08	1002.15	999.96	–	1.238	0.9558	–
m1 = 0.0844	–	–	997.07	–	–	0.7617
m1 = 0.0902	–	–	997.29	–	–	0.7645
m1 = 0.0924	1002.59	1000.39	–	1.252	0.9653	–
m1 = 0.0959	–	–	997.48	–	–	0.7686
m1 = 0.101	–	–	997.66	–	–	0.7716
m1 = 0.1021	1002.93	1000.72	–	1.262	0.9733	–
m1 = 0.1154	–	–	998.16	–	–	0.7769

O=C[C@H](O)[C@@H](O)[C@H](O)[C@H](O)CO [D-glucose] + O
[2], m1 = 0.06
Conditions	mass density [kg/m3]	viscosity [mPa·s]
288.15 K	1003.25	1.174
298.15 K	1001.17	0.9111
308.15 K	998.15	0.7299

[Cl-].[Na+] [sodium chloride] + O
[2], m1 = 0.06
Conditions	mass density [kg/m3]	viscosity [mPa·s]
288.15 K	1001.64	1.146
298.15 K	999.52	0.896
308.15 K	–	0.7233

O [water] + CCCC(CCC)C(=O)[O-].[Na+]
[2], m2 = 0
Conditions	viscosity [mPa·s]
288.15 K	1.138
298.15 K	0.8903
308.15 K	0.7195
